Source: article PMC8588462, “Hybrid Chelator-Based PSMA Radiopharmaceuticals: Translational Approach” (Molecules, 2021)

Target: T1, Prostate-specific membrane antigen (PSMA) (Homo sapiens, UniProt Q04609)
T1 construct: gene FOLH1; native full-length membrane protein on intact LNCaP prostate cancer cells; homodimer (known biology)
Experiment: competitive radioligand binding, LNCaP cells, filter plates
Assay type: cell-based
Conditions: 0.75 nM [68Ga]Ga-PSMA-10 tracer, room temperature, 45 min; non-labelled ligand (no metal)
Description: competitive radioligand binding, LNCaP cells, filter plates on Prostate-specific membrane antigen (PSMA)

T1 sequence (Q04609 whole entry): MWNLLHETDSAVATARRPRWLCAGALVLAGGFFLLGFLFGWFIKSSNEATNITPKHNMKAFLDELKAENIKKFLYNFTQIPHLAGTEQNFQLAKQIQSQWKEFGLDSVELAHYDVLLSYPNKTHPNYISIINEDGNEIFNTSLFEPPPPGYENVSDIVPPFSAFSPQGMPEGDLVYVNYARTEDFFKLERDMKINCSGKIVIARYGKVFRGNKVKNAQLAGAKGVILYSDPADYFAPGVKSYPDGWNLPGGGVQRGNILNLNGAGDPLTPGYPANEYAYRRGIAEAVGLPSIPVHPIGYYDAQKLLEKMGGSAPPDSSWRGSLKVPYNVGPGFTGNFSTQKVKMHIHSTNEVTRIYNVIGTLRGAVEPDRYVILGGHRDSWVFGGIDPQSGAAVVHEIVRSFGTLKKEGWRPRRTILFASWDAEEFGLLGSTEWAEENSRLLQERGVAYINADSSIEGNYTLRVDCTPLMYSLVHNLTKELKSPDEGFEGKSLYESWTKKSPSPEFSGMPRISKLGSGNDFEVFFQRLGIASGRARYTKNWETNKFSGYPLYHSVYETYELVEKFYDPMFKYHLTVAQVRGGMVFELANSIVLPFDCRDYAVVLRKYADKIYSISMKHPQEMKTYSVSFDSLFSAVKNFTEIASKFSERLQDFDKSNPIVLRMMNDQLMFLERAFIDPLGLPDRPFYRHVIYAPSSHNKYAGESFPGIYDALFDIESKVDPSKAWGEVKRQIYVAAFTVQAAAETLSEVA

Row | IC50 | Compound
1 | 26.2 ± 2.4 nM | O=C(O)CCc1ccc(O)c(CN(CCN(CC(=O)O)Cc2cc(CCC(=O)NCCCCCC(=O)NCCCC[C@H](NC(=O)N[C@@H](CCC(=O)O)C(=O)O)C(=O)O)ccc2O)CC(=O)O)c1 [PSMA-11]
2 | 51.1 ± 5.5 nM | CN(CC(=O)O)C1(CCCCC(=O)NCCNc2c(NCCCC[C@H](NC(=O)N[C@@H](CCC(=O)O)C(=O)O)C(=O)O)c(=O)c2=O)CN(CC(=O)O)CCN(CC(=O)O)C1 [compound 14, DATA^5m.SA.KuE]
